Data reported in patent US20250223268A1, “4-Methylsulfonylbenzamide Compound, Preparation Method, Herbicidal Composition And Use” (Jiangsu Flag Chemical Industry Co., Ltd., priority 2022, published 2025).

Columns and labels:
Test in all cases: Greenhouse herbicidal activity assay, post-emergence
Assay type in all cases: in vivo
Conditions in all cases: Post-emergence test, rate 150 g a.i./hm^2, grade by fresh weight inhibition rate
Digitaria sanguinalis = system: Digitaria sanguinalis
Method in brief: (§1)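 Graded A (≥80%) to E (<20%) by fresh weight inhibition, read 14-21 days after spraying. Plants were pot-grown in a growth chamber and received foliar application at the 3-6 leaf stage, being air-dried and returned to the chamber afterwards.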

Eclipta prostrata = system: Eclipta prostrata
Method in brief: as §1

Echinochloa crusgalli = system: Echinochloa crusgalli
Method in brief: as §1

Leptochloa chinensis = system: Leptochloa chinensis
Method in brief: as §1

Cyperus iria = system: Cyperus iria
Method in brief: as §1

SMILES	Control efficacy grade, Digitaria sanguinalis (Digitaria sanguinalis)	Control efficacy grade, Eclipta prostrata (Eclipta prostrata)	Control efficacy grade, Echinochloa crusgalli (Echinochloa crusgalli)	Control efficacy grade, Leptochloa chinensis (Leptochloa chinensis)	Control efficacy grade, Cyperus iria (Cyperus iria)	pest or weed control at 150 g/ha (Digitaria sanguinalis; Digitaria sanguinalis, read-out: Control efficacy grade, Digitaria sanguinalis)	pest or weed control at 150 g/ha (Eclipta prostrata; Eclipta prostrata, read-out: Control efficacy grade, Eclipta prostrata)	pest or weed control at 150 g/ha (Echinochloa crusgalli; Echinochloa crus-galli, read-out: Control efficacy grade, Echinochloa crusgalli)	pest or weed control at 150 g/ha (Leptochloa chinensis; Dinebra chinensis, read-out: Control efficacy grade, Leptochloa chinensis)	pest or weed control at 150 g/ha (Cyperus iria; Cyperus iria, read-out: Control efficacy grade, Cyperus iria)
CCC[S+]([O-])c1c(S(C)(=O)=O)ccc(C(=O)Nc2nnn[nH]2)c1Cl (racemic) [Compound 1-78]	A (Fresh weight inhibition rate≥80% to 100%)	A (Fresh weight inhibition rate≥80% to 100%)	A (Fresh weight inhibition rate≥80% to 100%)	A (Fresh weight inhibition rate≥80% to 100%)	A (Fresh weight inhibition rate≥80% to 100%)	–	–	–	–	–
CC(C)[S+]([O-])c1c(S(C)(=O)=O)ccc(C(=O)Nc2nnn[nH]2)c1Cl (racemic) [Compound 1-83]	A (Fresh weight inhibition rate≥80% to 100%)	A (Fresh weight inhibition rate≥80% to 100%)	A (Fresh weight inhibition rate≥80% to 100%)	A (Fresh weight inhibition rate≥80% to 100%)	A (Fresh weight inhibition rate≥80% to 100%)	–	–	–	–	–
CCC[S+]([O-])c1c(S(C)(=O)=O)ccc(C(=O)Nc2nnnn2CC)c1Cl (racemic) [Compound 1-88]	A (Fresh weight inhibition rate≥80% to 100%)	A (Fresh weight inhibition rate≥80% to 100%)	A (Fresh weight inhibition rate≥80% to 100%)	A (Fresh weight inhibition rate≥80% to 100%)	A (Fresh weight inhibition rate≥80% to 100%)	–	–	–	–	–
CCC[S+]([O-])c1c(S(C)(=O)=O)ccc(C(=O)Nc2ncnn2C)c1Cl (racemic) [Compound 2-2]	A (Fresh weight inhibition rate≥80% to 100%)	A (Fresh weight inhibition rate≥80% to 100%)	A (Fresh weight inhibition rate≥80% to 100%)	A (Fresh weight inhibition rate≥80% to 100%)	A (Fresh weight inhibition rate≥80% to 100%)	–	–	–	–	–
CC(C)[S+]([O-])c1c(S(C)(=O)=O)ccc(C(=O)Nc2ncnn2C)c1Cl (racemic) [Compound 2-7, 2-chloro-3-(isopropylsulfinyl)-N-(1-methyl-1H-1,2,4-triazol-5-yl)-4-(methylsulfonyl)benzamide]	–	–	–	–	–	80 to 100%	80 to 100%	80 to 100%	80 to 100%	80 to 100%
CCCC[S+]([O-])c1c(S(C)(=O)=O)ccc(C(=O)Nc2ncnn2C)c1Cl (racemic) [Compound 2-12]	A (Fresh weight inhibition rate≥80% to 100%)	A (Fresh weight inhibition rate≥80% to 100%)	A (Fresh weight inhibition rate≥80% to 100%)	A (Fresh weight inhibition rate≥80% to 100%)	A (Fresh weight inhibition rate≥80% to 100%)	–	–	–	–	–
CCC(C)S(=O)(=O)c1c(S(C)(=O)=O)ccc(C(=O)Nc2ncnn2C)c1Cl (racemic) [Compound 2-24]	A (Fresh weight inhibition rate≥80% to 100%)	A (Fresh weight inhibition rate≥80% to 100%)	A (Fresh weight inhibition rate≥80% to 100%)	A (Fresh weight inhibition rate≥80% to 100%)	A (Fresh weight inhibition rate≥80% to 100%)	–	–	–	–	–
Cn1ncnc1NC(=O)c1ccc(S(C)(=O)=O)c([S+]([O-])CC2CC2)c1Cl (racemic) [Compound 2-28]	A (Fresh weight inhibition rate≥80% to 100%)	A (Fresh weight inhibition rate≥80% to 100%)	A (Fresh weight inhibition rate≥80% to 100%)	A (Fresh weight inhibition rate≥80% to 100%)	A (Fresh weight inhibition rate≥80% to 100%)	–	–	–	–	–
